{"source": "the supplement of paper PMC10307832", "experiment_in_all_cases": "relative viability (nuclei count vs DMSO), 5 days (fraction); higher = more cells survive", "key": {"[1]": {"compound": "CC[C@@H]1C(=O)N(C)c2cnc(Nc3ccc(C(=O)NC4CCN(C)CC4)cc3OC)nc2N1C1CCCC1 [BI-2536] + CC(=O)Nc1cccc(-n2c(=O)n(C3CC3)c(=O)c3c(Nc4ccc(I)cc4F)n(C)c(=O)c(C)c32)c1 [Trametinib] (partner 0.02 µM)", "in_short": "(§1)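 Dosing by pin tool came one day after lung cancer cell lines were seeded in 1536-well plates, using either one drug or a fixed anchor-drug dose plus five library-drug doses (not always all listed) in √10 steps. After 5 days, nuclei were counted on 4× images. Relative viability is treated-well nuclei count divided by vehicle-well nuclei count, and values are medians of duplicate plates.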"}, "[2]": {"compound": "CC1CC(=O)N(C2=CN=C(N=C2N1C3CCCC3)NC4=C(C=C(C=C4)C(=O)NC5CCN(CC5)C)OC)C [NPK76-II-72-1] + CS(=O)(=O)N1CCN(Cc2cc3nc(-c4cccc5[nH]ncc45)nc(N4CCOCC4)c3s2)CC1 [Pictilisib] (partner 1 µM)", "in_short": "as §1"}, "[3]": {"compound": "CC1CC(=O)N(C2=CN=C(N=C2N1C3CCCC3)NC4=C(C=C(C=C4)C(=O)NC5CCN(CC5)C)OC)C [NPK76-II-72-1] + C[C@@H](Oc1cc(-c2cnn(C3CCNCC3)c2)cnc1N)c1c(Cl)ccc(F)c1Cl [Crizotinib] (partner 1 µM)", "in_short": "as §1"}, "[4]": {"compound": "CC[C@@H]1C(=O)N(C)c2cnc(Nc3ccc(C(=O)NC4CCN(C)CC4)cc3OC)nc2N1C1CCCC1 [BI-2536] + CC(C)C[C@H](NC(=O)[C@H](Cc1ccccc1)NC(=O)c1cnccn1)B(O)O [Bortezomib] (partner 0.002 µM)", "in_short": "as §1"}}, "data": [{"cell line": "UMC-11", "values": [{"measurement": "relative viability", "setting": "[1]; first compound 0.01 µM", "result": 0.489}, {"measurement": "relative viability", "setting": "[1]; first compound 0.03162 µM", "result": 0.637}, {"measurement": "relative viability", "setting": "[1]; first compound 0.1 µM", "result": 0.173}, {"measurement": "relative viability", "setting": "[1]; first compound 0.3162 µM", "result": 0.175}, {"measurement": "relative viability", "setting": "[1]; first compound 1 µM", "result": 0.521}, {"measurement": "relative viability", "setting": "[2]; first compound 0.01 µM", "result": 0.75}, {"measurement": "relative viability", "setting": "[2]; first compound 0.03162 µM", "result": 0.707}, {"measurement": "relative viability", "setting": "[2]; first compound 0.1 µM", "result": 0.881}, {"measurement": "relative viability", "setting": "[2]; first compound 0.3162 µM", "result": 0.806}, {"measurement": "relative viability", "setting": "[2]; first compound 1 µM", "result": 0.778}, {"measurement": "relative viability", "setting": "[3]; first compound 0.01 µM", "result": 0.622}, {"measurement": "relative viability", "setting": "[3]; first compound 0.03162 µM", "result": 0.574}, {"measurement": "relative viability", "setting": "[3]; first compound 0.1 µM", "result": 0.669}, {"measurement": "relative viability", "setting": "[3]; first compound 0.3162 µM", "result": 0.532}, {"measurement": "relative viability", "setting": "[3]; first compound 1 µM", "result": 0.707}, {"measurement": "relative viability", "setting": "[4]; first compound 0.01 µM", "result": 0.601}, {"measurement": "relative viability", "setting": "[4]; first compound 0.03162 µM", "result": 0.414}, {"measurement": "relative viability", "setting": "[4]; first compound 0.1 µM", "result": 0.175}, {"measurement": "relative viability", "setting": "[4]; first compound 0.3162 µM", "result": 0.134}, {"measurement": "relative viability", "setting": "[4]; first compound 1 µM", "result": 0.104}]}]}
